Columns and labels:
[1] = system: Salmonella Typhimurium ATCC 14028; test: Antibacterial activity: growth inhibition, OD600 after 24 h (GIC50); format: cell-based; settings: 25° C.
Method: Evaluation of antibacterial-inhibitory activity of some substituted 2-amino-1H-imidazoles of the invention was carried out by diluting an overnight culture of Salmonella Typhimurium ATCC 14028 into a liquid medium. 200 μl of the diluted overnight culture was added to each well of a microtiter plate together with different concentrations of the test compound (1/2 dilution series of the compound). After an incubation of 24 hours the optical density at 600 nm of each well was determined with a microtiter plate reader.
Starting from a 40 mM stock solution of each compound in DMSO, two-fold serial dilutions in 100 μl liquid broth per well were prepared in dublicate in sterile transparant microtiter plates. The broth used was TSB 1/20 for measurements at 25° C. and CFA (in case of Salmonella Typhimurium) and LBNS (in case of Pseudomonas aeruginosa) for measurements at 37° C. Subsequently an overnight culture of the bacteria (S. Typhimurium ATCC14028 or P. aeruginosa PA14) was diluted 1/200 into the corresponding liquid broth and 100 μl was added to each well of the microtiterplate resulting in a total amout of 200 μl medium per well. After an incubation of 24 hours the optical density at 600 nm of each well was determined with a microtiter plate reader (VERSAmax, Molecular Devices).
Evaluation of antibacterial-inhibitory activity of some substituted imidazo[1,2-a]pyrimidinium bromide salts of the invention was carried out by diluting an overnight culture of Salmonella Typhimurium ATCC14028 or Pseudomonas aeruginosa PA141/200 into liquid medium. 200 μl of the diluted overnight culture was added to each well of a microtiterplate together with different concentrations of the test compound (1/2 dilution series of the compound). After an incubation of 24 hours the optical density at 600 nm of each well was determined with a microtiter plate reader.

S. Typhimurium ATCC14028 [2] = test: Bioscreen assay: influence on planktonic growth curve; format: cell-based, Salmonella Typhimurium; parameters: key: x: no influence on planktonic growth at the IC50 for biofilm inhibition; planktonic growth is retarded at the IC50 for biofilm inhibition; settings: planktonic growth at the IC50 for biofilm inhibition, 25° C.
Source text: Some of the tested compounds show a concentration range in which biofilm formation is inhibited but no effect on planktonic growth is observed. These compounds are particularly interesting for prevention of biofilm formation since the development of resistance against these compounds is less likely. Table 8 indicates whether the different compounds have an effect on the planktonic growth of the bacteria at the IC50 for biofilm inhibition. To construct Table 8, the effect of the tested compounds on the growth curve of the bacteria was determined at a concentration equal to the IC50 for biofilm inhibition, by using the Bioscreen system available from Oy Growth Curves Ab Ltd). The Bioscreen device from Oy Growth Curves Ab Ltd was used for measuring the influence of the chemical compounds on the planktonic growth of Salmonella Typhimurium and Pseudomonas aeruginosa. The Bioscreen is a computer controlled incubator/reader/shaker that uses 10×10 well microtiter plates and measures light absorbance of each well at a specified wave length in function of time. An overnight culture of S. […] The broth used was TSB 1/20 for the experiments at 16° C. and 25° C. For experiments at 37° C. CFA medium was used for S. […] As a control 3 μl of the appropriate solvent (DMSO or EtOH) was also added to the plate in 3- or 4-fold. The microtiter plate was incubated in the Bioscreen device at 16° C., 25° C. or 37° C. for at least 36 hours, with continious medium shaking. The absorbance of each well was measured at 600 nm each 15 minutes. Excel was used to generate the growth curves for treated the treated wells and the untreated control wells. Some of the compounds show a concentration range in which biofilm formation is inhibited but no effect on the planktonic growth is observed. […] To construct this table the effect of the compounds on the growth curve of the bacteria was determined at a concentration equal to the IC50 for biofilm inhibtion, by using the Bioscreen system from Oy Growth Curves Ab Ltd.

[3] = system: Pseudomonas aeruginosa PA14; test: as above; format: cell-based; parameters: key: x: no influence on planktonic growth at the IC50 for biofilm inhibition; planktonic growth is retarded at the IC50 for biofilm inhibition; settings: planktonic growth at the IC50 for biofilm inhibition, 25° C.
Source text: Some of the tested compounds show a concentration range in which biofilm formation is inhibited but no effect on planktonic growth is observed. These compounds are particularly interesting for prevention of biofilm formation since the development of resistance against these compounds is less likely. Table 8 indicates whether the different compounds have an effect on the planktonic growth of the bacteria at the IC50 for biofilm inhibition. To construct Table 8, the effect of the tested compounds on the growth curve of the bacteria was determined at a concentration equal to the IC50 for biofilm inhibition, by using the Bioscreen system available from Oy Growth Curves Ab Ltd). The Bioscreen device from Oy Growth Curves Ab Ltd was used for measuring the influence of the chemical compounds on the planktonic growth of Salmonella Typhimurium and Pseudomonas aeruginosa. The Bioscreen is a computer controlled incubator/reader/shaker that uses 10×10 well microtiter plates and measures light absorbance of each well at a specified wave length in function of time. An overnight culture of S. […] The absorbance of each well was measured at 600 nm each 15 minutes. […] To construct this table the effect of the compounds on the growth curve of the bacteria was determined at a concentration equal to the IC50 for biofilm inhibtion, by using the Bioscreen system from Oy Growth Curves Ab Ltd.

S. Typhimurium ATCC14028 [4] = test: as above; format: cell-based, Salmonella Typhimurium; settings: 400 μM
Source text: Some of the tested compounds show a concentration range in which biofilm formation is inhibited but no effect on planktonic growth is observed. These compounds are particularly interesting for prevention of biofilm formation since the development of resistance against these compounds is less likely. Table 8 indicates whether the different compounds have an effect on the planktonic growth of the bacteria at the IC50 for biofilm inhibition. To construct Table 8, the effect of the tested compounds on the growth curve of the bacteria was determined at a concentration equal to the IC50 for biofilm inhibition, by using the Bioscreen system available from Oy Growth Curves Ab Ltd). The Bioscreen device from Oy Growth Curves Ab Ltd was used for measuring the influence of the chemical compounds on the planktonic growth of Salmonella Typhimurium and Pseudomonas aeruginosa. The Bioscreen is a computer controlled incubator/reader/shaker that uses 10×10 well microtiter plates and measures light absorbance of each well at a specified wave length in function of time. An overnight culture of S. […] The broth used was TSB 1/20 for the experiments at 16° C. and 25° C. For experiments at 37° C. CFA medium was used for S. […] As a control 3 μl of the appropriate solvent (DMSO or EtOH) was also added to the plate in 3- or 4-fold. The microtiter plate was incubated in the Bioscreen device at 16° C., 25° C. or 37° C. for at least 36 hours, with continious medium shaking. The absorbance of each well was measured at 600 nm each 15 minutes. Excel was used to generate the growth curves for treated the treated wells and the untreated control wells. Some of the compounds show a concentration range in which biofilm formation is inhibited but no effect on the planktonic growth is observed. Table 14 indicates if the different compounds have an effect on the planktonic growth of the bacteria at the IC50 for biofilm inhibition. To construct this table the effect of the compounds on the growth curve of the bacteria was determined at a concentration equal to the IC50 for biofilm inhibtion, by using the Bioscreen system from Oy Growth Curves Ab Ltd.

`CCCCCCN1c2nccc[n+]2CC1(O)c1ccc([N+](=O)[O-])cc1.[Br-]` (stereo not drawn) [Compound 34] was tested, and the IC50 [1] was 100 to 200 µM.
With `OC1(c2ccc(Cl)cc2)C[n+]2cccnc2N1C1CCCCC1.[Br-]` (stereo not drawn) [Compound 64] the IC50 [1] was 50 to 100 µM.
With `O=[N+]([O-])c1ccc(C2(O)C[n+]3cccnc3N2C2CCCCCCCCCCC2)cc1.[Br-]` (stereo not drawn) [Compound 69] the Influence on growth (S. Typhimurium ATCC14028 [2]) was “∘”, the Influence on growth [3] was “∘” and the IC50 [1] was under 6 µM.
With `OC1(c2ccc(I)cc2)C[n+]2cccnc2N1Cc1ccccc1.[Br-]` (stereo not drawn) [Compound 73] the “Effect on growth at 400 μM” value (S. Typhimurium ATCC14028 [4]) was “∘”, the IC50 ([1]; listed as R1=Benzyl, R3=4-I—Ph, R4=H) was 50 µM and the IC50 ([1]; listed as R1=benzyl, R3=4-I—ph, R4=H) was 50 to 100 µM.
`OC1(c2ccc(-c3ccccc3)cc2)C[n+]2cccnc2N1C1CCCC1.[Br-]` (stereo not drawn) [R1=Cyclopentyl, R3=4-biphenylyl, R4=H, 1-cyclopentyl-2-hydroxy-2-(4-biphenylyl)-2,3-dihydro-1H-imidazo[1,2-a]pyrimidin-4-ium bromide] gave an IC50 ([1]; Salmonella enterica) of 25 to 50 µM.

Reference: patent publication US20130029981A1, “COMPOUNDS, COMPOSITIONS, AND METHODS FOR CONTROLLING BIOFILMS” (Katholieke Universiteit Leuven, priority 2009, published 2013)
